US8364409B2 (priority 2006, dated 2013)

System: sensitive M bovis strain
Type: cell-based, Mycobacterium bovis BCG

## NNC(=O)c1ccncc1 [INH, isoniazid]
  stress response (Impedance Response profile): varies with the drug concentration
